Values belong to the molecule of their own block, whether it stands above or below them.
Assays:
human ER-α = biological target: T1, human ER-α (Homo sapiens, UniProt P03372); test: Human estrogen receptor-α binding
T1 sequence (P03372 1-595): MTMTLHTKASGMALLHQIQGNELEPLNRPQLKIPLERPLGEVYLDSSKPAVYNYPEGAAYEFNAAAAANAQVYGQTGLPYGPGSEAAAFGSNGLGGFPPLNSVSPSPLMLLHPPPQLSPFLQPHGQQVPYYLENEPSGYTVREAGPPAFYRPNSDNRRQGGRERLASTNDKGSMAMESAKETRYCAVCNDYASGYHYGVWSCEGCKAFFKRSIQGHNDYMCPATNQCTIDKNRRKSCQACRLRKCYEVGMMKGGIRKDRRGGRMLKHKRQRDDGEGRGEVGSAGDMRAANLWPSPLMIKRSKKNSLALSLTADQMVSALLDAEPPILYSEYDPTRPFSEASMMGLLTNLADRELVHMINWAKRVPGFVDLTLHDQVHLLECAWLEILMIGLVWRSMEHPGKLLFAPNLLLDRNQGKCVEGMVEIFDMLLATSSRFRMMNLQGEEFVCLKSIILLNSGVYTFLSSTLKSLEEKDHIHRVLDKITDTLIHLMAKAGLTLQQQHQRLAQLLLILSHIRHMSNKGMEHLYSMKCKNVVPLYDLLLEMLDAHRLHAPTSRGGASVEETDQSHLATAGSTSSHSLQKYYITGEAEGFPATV
Description: (§1) In Vitro Study—Human Estrogen Receptor-α and -β (ER-α and ER-β)

human ER-β = human ER-β (Homo sapiens, UniProt Q92731); test: Human estrogen receptor-β binding; conditions: for affinity for ER-β higher than raloxifene: compared with raloxifene
human ER-β, sequence (Q92731 whole entry): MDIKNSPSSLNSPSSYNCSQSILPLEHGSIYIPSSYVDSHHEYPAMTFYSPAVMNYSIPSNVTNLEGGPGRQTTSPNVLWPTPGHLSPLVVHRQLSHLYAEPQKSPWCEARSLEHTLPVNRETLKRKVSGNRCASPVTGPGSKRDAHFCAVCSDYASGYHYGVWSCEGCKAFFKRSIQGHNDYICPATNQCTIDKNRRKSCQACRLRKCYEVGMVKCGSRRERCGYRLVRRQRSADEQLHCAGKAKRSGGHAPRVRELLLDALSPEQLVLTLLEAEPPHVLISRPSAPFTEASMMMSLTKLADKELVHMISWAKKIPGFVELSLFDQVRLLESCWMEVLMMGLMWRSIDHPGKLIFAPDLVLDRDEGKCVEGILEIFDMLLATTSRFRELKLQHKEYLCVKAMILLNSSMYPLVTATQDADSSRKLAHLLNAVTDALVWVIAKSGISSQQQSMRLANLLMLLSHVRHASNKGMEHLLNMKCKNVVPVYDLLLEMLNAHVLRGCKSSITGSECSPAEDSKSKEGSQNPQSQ
Description: as §1

[1] = system: immature female rats (E2-stimulated uterus); test: Immature female rat assay, antiuterotrophic activity; assay type: in vivo
Description: (§2) In Vivo Studies—Immature Female Rat Assay.
Antiuterotrophic Activity
(§3) Experiments have been conducted as described in Eppenberger U et al, Am J Clin Oncol 14 (suppl. 2), S5-S14, 1991.
This concentration of E2 was the lowest producing near-maximal effect and was chosen on the basis of preliminary dose-response experiments.

[2] = system: immature female rats (uterine weight); test: Immature female rat assay, uterotrophic activity; assay type: in vivo; conditions: for increase of uterine weight compared with vehicle treated control rats: 0.1 mg/kg/day; for uterine weight versus control rats: 0.01, 1 and 10 mg/kg/day; for uterine weights versus control rats: 0.01, 0.1, 1 and 10 mg/kg·day
Description: as §2, §3

OVX rats [3] = test: Four-week OVX rat assay, bone mineral density (lumbar spine L1-4) by DEXA; assay type: in vivo; conditions: 4 weeks
Procedure: Effects in the Ovariectomized (OVX) Rat Model
(§4) The experiments have been conducted according to Kaln D N, Bone Mineral 15, 175-192, 1991 and Grese T A et al J Med Chem 40, 146-167, 1997.
(§5) The effects of the tested compounds were evaluated also in 9-11-month-old OVX rats that were dosed for 4 weeks post-surgery and compared with OVX and Sham controls.
(§6) Tissue-specific estrogen agonist effects were examined utilizing uterine weight, uterine histology, uterine eosinophil peroxidase activity (EPO), bone mineral density (BMD), and serum cholesterol levels as end points.
Effect on Bone Mineral Density (BMD) (Lumbar Spine L1-4)
Bone mineral density (BMD) was measured by DEXA (Dual Energy XRay Absorptiometry) using a Hologic QDR-1000 plus instrument equipped with dedicated software for small animal measurements. An ultrahigh-resolution mode (line spacing 0.0254 cm and resolution 0.0127 cm) was used with a collimator of 0.63 mm diameter. This technique provides an integrated measure of both cortical and trabecular bone.
In vivo DEXA measurements were carried out immediately before surgery (baseline scan) and 4 weeks after surgery. The anatomic region examined was the lumbar spine L1-4.
All animals were anesthetized before scanning with a mixture of ketamine and p-promazine. For each scan a rat was placed in a supine position with the spine parallel to the long axis of the densitometer table. The lumbar spine was scanned using the pelvic bones as landmark; analysis of this site was accomplished by dividing vertebra and intervertebral spaces with subregional high resolution software and including only target vertebra in the global region of interest.
Percent protection was calculated by the following formula: % protection=[(% chance BMDtest compound−% chance BMDOVX control)/(% chance BMDsham control−% chance BMDOVX control)]×100.

OVX rats [4] = test: Four-week OVX rat assay, serum cholesterol levels; assay type: in vivo; conditions: for lowering of serum cholesterol levels, comparison in words: with respect to controls, compared with E2 / Compound II
Procedure: as §4, §5, §6
Effect on Serum Cholesterol Levels

MCF-7 = test: cells; conditions: for concentration of total growth inhibition: 72-hours incubation; for IC50: read-out: Inhibitory Concentration IC50
Procedure: In Vitro Study—MCF-7 Cell Proliferation
The tumor cells were obtained from American Type Culture Collection (ATCC HTB-22). The culture media used was Minimum Essential medium with 10% fetal bovine serum, and media were supplemented with 1% antibiotic-antimycotic. Aliquots of 100 μl of cell suspension (5×10^3/well) were placed in 96-well microtiter plates in an atmosphere of 5% CO2 at 37° C. After 24 hours, 100 μl of growth medium, 2 μl of test solution, mitomycin or vehicle (DMSO, final concentration 0.4%), was added respectively per well in duplicate for an additional 72-hours incubation. At the end of incubation, 20 μl of alamarBlue 75% reagent was added to each well for another 6-hour incubation before detection of cell viability by fluorescent intensity (excitation at 530 nm and emission at 590 nm).

OVX rats [5] = test: Four-week OVX rat assay, uterine effects (weight, eosinophil peroxidase, histology); conditions: in vivo
Procedure: as §4, §5, §6
The degree of eosinophilic peroxidase induction of the uterus may be a useful marker for estrogen-effected growth responses (Lyttle C R and DeSombre E R Proc Natl Acad Sci USA 74, 3162-3166, 1977).

Solubility in water = assay type: physicochemical; conditions: r.t.
[6] = oral, E2 0.05 mg/kg per os for 3 days

Molecule: Oc1ccc2c(c1)OCC(c1ccccc1)=C2Cc1ccc(OCCN2CCCCC2)cc1 [Compound I, 3-phenyl-4-(4-(2-(N-piperidinyl)ethoxy)benzyl)-7-hydroxychrom-3-ene]
Ki (human ER-α): 0.041 ± 0.011 nM
Ki (human ER-β): 0.157 ± 0.028 nM
affinity for ER-β higher than raloxifene (human ER-β): 10 fold
dose at which total antagonism of E2 uterotrophic action was observed ([1]; oral): 1 to 10 mg/kg/day
EC50, inhibition of the uterotrophic action of E2 [1, 6]: 0.33 mg/kg·day
increase of uterine weight compared with vehicle treated control rats [2]: 17%
uterine weight versus control rats [2]: not significantly different from control rats
% protection of BMD (OVX rats [3]; first experiment, 10 mg/kg/day): 47%
maximal lowering of cholesterol, inhibition relative to the OVX control (OVX rats [4]; 10 mg/kg): 67%
ED50 (OVX rats [4]; Rattus norvegicus, 672 h, 0.1-10 mg/kg day, 4 weeks, read-out: ED50, decrease of total serum cholesterol (half maximal efficacy)): 0.12 mg/kg
concentration of total growth inhibition (MCF-7): 11 µM
CC50 (MCF-7; Homo sapiens, MCF7, 72 h, read-out: 50% lethal concentrations (LC50)): 20000 nM
IC50 (MCF-7; Homo sapiens, MCF7, 72 h): 6500 nM

Molecule: COc1ccc2c(c1)OC(C)(C)[C@@H](c1ccccc1)[C@@H]2c1ccc(OCCN2CCCC2)cc1 [levormeloxifene]
inhibition of E2 stimulation of the uterus ([1]; at 1 mg/kg/day, partial antagonism): 40-45%
uterine weights versus control rats [2]: significantly increased
maximal agonist activity, % that of E2 ([2]; at 1 mg/kg): 60-65%
lowering of serum cholesterol levels, comparison in words (OVX rats [4]): significantly less potent
eosinophilic peroxidase activity compared to OVX uteri (OVX rats [5]): significantly increased
uterine epithelia / endometrium histology (OVX rats [5]): full disappearance of epithelium atrophy

Molecule: CS(=O)(=O)O.Oc1ccc2c(c1)OCC(c1ccccc1)=C2Cc1ccc(OCCN2CCCCC2)cc1 [Example 43, 3-phenyl-4-(4-(2-(N-piperidinyl)ethoxy)benzyl)-7-hydroxychrom-3-ene methansulfonate (1:1)]
solubility (Solubility in water): > 1000 µg/mL

Molecule: 17α-ethynil estradiol [reference compound]
increase of uterine wet weight compared with vehicle-treated controls ([1]; 0.05 mg/kg per os for 3 days): 170-220%
% protection of BMD (OVX rats [3]; first experiment, 0.1 mg/kg): ~50%
% protection of BMD (OVX rats [3]; second experiment, 0.1 mg/kg): ~95%
uterine epithelia / endometrium histology (OVX rats [5]): full disappearance of epithelium atrophy

Ki (human ER-α): 0.017 ± 0.002 nM
Ki (human ER-β): 0.099 ± 0.005 nM
affinity for ER-β higher than raloxifene (human ER-β): 16 fold
Molecule: COc1ccc(C2=C(Cc3ccc(OCCN4CCCCC4)cc3)c3ccc(O)cc3OC2)cc1.Cl [Compound II, 3-(4-methoxy)phenyl-4-[[4-[2-(1-piperidinyl)ethoxyl]phenyl]methyl]-2H-1-benzopyran-7-ol hydrochloride]
dose at which total antagonism of E2 uterotrophic action was observed ([1]; oral): 0.1-1 mg/kg·day
ED50 = dose required to produce 50% reduction in estradiol-stimulated growth [1, 6]: 0.016 mg/kg·day
uterine weights versus control rats [2]: not significantly different from control rats
% protection of BMD (OVX rats [3]; second experiment, 0.1 mg/kg): 60%
% protection of BMD (OVX rats [3]; second experiment, 1 mg/kg·day): 119%
decrease of total serum cholesterol, inhibition (OVX rats [4]; 0.1 mg/kg·day): 75%
decrease of total serum cholesterol, inhibition (OVX rats [4]; 1 mg/kg·day): 81%
lowering of serum cholesterol levels, comparison in words (OVX rats [4]): as efficacious as E2

Molecule: CC/C(=C(\c1ccccc1)c1ccc(OCCN(C)C)cc1)c1ccccc1 [tamoxifene]
concentration of total growth inhibition (MCF-7): 11 µM

Molecule: O=C(c1ccc(OCCN2CCCCC2)cc1)c1c(-c2ccc(O)cc2)sc2cc(O)ccc12 [raloxifene]
ED50 = dose required to produce 50% reduction in estradiol-stimulated growth [1, 6]: 0.39 mg/kg·day
increase of uterine weight compared with vehicle treated control rats [2]: 32%
uterine weights versus control rats [2]: not significantly different from control rats
uterine weight versus control rats [2]: not significantly different from control rats
lowering of serum cholesterol levels, comparison in words (OVX rats [4]): significantly less potent
concentration of total growth inhibition (MCF-7): 18 µM
IC50 (MCF-7; Homo sapiens, MCF7, 72 h): 11000 nM
